Results from US10481149B2.

Experiments:
BSEP [1] = molecular target: T1, BSEP (Rattus norvegicus, UniProt O70127); assay: IC50 for inhibition of BSEP activity in rat hepatocytes; format: cell-based
T1 sequence (O70127 1-1321): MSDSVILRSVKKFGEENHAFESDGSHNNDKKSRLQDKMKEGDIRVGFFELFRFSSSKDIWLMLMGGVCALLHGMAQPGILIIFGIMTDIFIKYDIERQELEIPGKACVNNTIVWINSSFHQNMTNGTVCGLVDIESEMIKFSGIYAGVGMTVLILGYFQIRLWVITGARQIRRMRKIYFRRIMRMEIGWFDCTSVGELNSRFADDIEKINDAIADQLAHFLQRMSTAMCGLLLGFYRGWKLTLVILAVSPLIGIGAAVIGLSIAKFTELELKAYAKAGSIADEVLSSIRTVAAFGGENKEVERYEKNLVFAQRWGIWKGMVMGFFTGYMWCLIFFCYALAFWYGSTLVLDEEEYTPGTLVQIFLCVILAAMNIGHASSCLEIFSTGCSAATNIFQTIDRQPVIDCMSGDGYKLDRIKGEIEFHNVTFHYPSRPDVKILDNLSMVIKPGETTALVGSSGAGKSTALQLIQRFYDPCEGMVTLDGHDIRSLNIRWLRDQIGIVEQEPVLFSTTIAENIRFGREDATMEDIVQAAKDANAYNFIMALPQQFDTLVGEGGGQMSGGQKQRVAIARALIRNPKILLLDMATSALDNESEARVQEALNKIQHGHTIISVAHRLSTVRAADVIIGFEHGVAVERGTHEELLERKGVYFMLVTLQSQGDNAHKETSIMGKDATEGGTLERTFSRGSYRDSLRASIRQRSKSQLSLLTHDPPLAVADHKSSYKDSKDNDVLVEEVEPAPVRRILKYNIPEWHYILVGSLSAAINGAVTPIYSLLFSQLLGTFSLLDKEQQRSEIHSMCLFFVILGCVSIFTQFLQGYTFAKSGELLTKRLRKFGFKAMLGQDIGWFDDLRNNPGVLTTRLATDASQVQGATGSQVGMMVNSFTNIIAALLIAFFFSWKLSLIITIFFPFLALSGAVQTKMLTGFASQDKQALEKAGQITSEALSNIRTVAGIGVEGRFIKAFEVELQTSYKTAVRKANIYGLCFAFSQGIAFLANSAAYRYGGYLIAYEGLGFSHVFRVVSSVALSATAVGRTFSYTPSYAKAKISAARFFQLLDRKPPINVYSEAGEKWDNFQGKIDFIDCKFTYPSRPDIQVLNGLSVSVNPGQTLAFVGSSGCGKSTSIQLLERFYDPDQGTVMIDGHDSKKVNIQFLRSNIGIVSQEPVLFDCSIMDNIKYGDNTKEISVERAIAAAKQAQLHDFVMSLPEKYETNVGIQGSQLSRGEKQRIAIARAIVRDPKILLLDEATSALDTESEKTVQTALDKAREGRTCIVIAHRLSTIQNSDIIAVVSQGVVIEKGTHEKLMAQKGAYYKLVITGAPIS
Description: (§1) Kinetic parameters were calculated using standard Michaelis-Menten kinetics. IC50 values were determined using Prism software (La Jolla, Calif.) or median-effect equation. [Chou et al., Theoretical basis, experimental design, and computerized simulation of synergism and antagonism in Drug Combination Studies. Pharmacological Reviews 58, 621, 2006]

BSEP [2] = molecular target: BSEP (Homo sapiens, UniProt O95342); assay: IC50 for inhibition of BSEP activity in human hepatocytes; format: cell-based
Description: as §1

Sequence of BSEP (Homo sapiens, UniProt O95342) (O95342 whole entry): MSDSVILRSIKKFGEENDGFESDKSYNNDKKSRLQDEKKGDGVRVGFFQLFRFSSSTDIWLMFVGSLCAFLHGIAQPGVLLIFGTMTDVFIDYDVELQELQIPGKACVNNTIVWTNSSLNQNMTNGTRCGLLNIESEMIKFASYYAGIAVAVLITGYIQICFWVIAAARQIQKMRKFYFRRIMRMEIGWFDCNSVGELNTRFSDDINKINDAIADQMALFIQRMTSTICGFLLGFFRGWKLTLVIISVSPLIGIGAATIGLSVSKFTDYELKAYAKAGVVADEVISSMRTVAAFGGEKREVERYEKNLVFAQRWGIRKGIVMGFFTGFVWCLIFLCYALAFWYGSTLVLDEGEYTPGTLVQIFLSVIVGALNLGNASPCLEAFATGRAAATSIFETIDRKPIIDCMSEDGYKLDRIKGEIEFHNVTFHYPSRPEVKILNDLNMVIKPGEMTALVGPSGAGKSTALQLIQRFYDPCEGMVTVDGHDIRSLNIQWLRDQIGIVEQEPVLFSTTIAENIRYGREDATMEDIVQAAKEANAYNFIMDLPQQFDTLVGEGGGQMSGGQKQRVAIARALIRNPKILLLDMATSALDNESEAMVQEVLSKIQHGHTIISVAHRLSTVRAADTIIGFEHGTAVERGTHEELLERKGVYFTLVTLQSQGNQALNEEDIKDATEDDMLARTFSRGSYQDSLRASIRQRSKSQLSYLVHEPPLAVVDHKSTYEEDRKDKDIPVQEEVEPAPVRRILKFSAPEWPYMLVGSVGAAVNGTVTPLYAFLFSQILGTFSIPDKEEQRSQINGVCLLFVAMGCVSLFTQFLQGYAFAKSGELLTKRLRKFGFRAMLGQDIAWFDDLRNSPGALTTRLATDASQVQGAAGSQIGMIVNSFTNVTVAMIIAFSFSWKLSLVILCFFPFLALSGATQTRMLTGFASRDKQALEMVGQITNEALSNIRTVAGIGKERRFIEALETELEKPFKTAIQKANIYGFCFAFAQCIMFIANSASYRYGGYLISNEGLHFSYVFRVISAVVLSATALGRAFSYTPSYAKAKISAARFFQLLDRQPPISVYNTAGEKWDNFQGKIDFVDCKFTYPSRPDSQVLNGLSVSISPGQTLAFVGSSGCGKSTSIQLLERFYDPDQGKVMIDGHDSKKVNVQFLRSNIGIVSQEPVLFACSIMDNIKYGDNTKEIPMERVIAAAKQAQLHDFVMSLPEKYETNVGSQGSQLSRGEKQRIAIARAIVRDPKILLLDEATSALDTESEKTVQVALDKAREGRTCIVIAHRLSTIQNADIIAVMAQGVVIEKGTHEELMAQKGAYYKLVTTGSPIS

Compound	IC50 (BSEP [1]) [µM]	IC50 (BSEP [2]) [µM]
Cc1c(C)c2c(c(C)c1O)CCC(C)(COc1ccc(CC3SC(=O)NC3=O)cc1)O2 (stereo not shown) [Troglitazone, troglitazone]	1 to 10	1 to 10
CO[C@H]1/C=C/O[C@@]2(C)Oc3c(C)c(O)c4c(O)c(c(/C=N/N5CCN(C)CC5)c(O)c4c3C2=O)NC(=O)/C(C)=C\C=C\[C@H](C)[C@H](O)[C@@H](C)[C@@H](O)[C@@H](C)[C@H](OC(C)=O)[C@@H]1C [Rifampicin]	1 to 10	
CC(=O)N1CCN(c2ccc(OCC3COC(Cn4ccnc4)(c4ccc(Cl)cc4Cl)O3)cc2)CC1 (stereo not shown) [Ketoconazole, ketoconazole]	> 10	
